Reference: patent publication US10906909B2, “Treatment of cognitive and mood symptoms in neurodegenerative and neuropsychiatric disorders with ALPHA5-containing GABAA receptor agonists” (UWM Research Foundation, Inc., priority 2016, dated 2021)
Values joined by “and” are separate entries in the source; they are usually repeats but may differ in a detail not shown here. Equal entries are not always repeated. “Also recorded” adds a separate entry of the source.

Legend:
[1] = Mouse liver microsome stability assay; assay type: in vitro ADME; conditions: 10 μM compound; for half-life at 10 μM: mouse, liver microsomes, read-out: Half-life (min) (MouseLM); for % left (MouseLM), (1 h): cells marked (1 h)
Method: (§1) Human and mouse liver microsomes were obtained fom BD Gentest.
(§2) Each evaluation included six independent assays carried out three at a time, on two different days
(§3) 2. For a total volume of Microsomal Assay Mixture (MAM) 390 μL, sufficient for seven time points, combine the following
(§4) 3. Sonicate MAM for 5 min and meanwhile thaw microsomes (20 mg/mL) (BD Gentest, Cat #452156) on ice.
(§5) 4. Aliquot 100 μL of ice cold ISTD into 7 separate 1.5 mL conical vials and label them the time points for 0, 10, 20, 40, 60, 90, and 120 min.
(§6) 5. Arrange the timer. Microsomes (Final concentration of 0.5 mg/mL) should be added to all time points except the zero time point.
(§7) 6. Add 50 μL of the MAM solution to the conical vial labelled as zero time point. Place the remaining MAM solution in the incubator (37° C.) for 5 min and initiate the reaction with addition of microsomes (8.8 μL) and record the time.
(§8) 7. At the end of each time interval remove 50 μL and add 100 μL to ISTD in conical vial, sonicate for 10 sec and spin down at 10,000 rpm for 5 minutes.
(§9) 8. Take 100 μL of supernatant and transfer to Spin-X HPLC filter tubes (Corning Incorporated, Cat #8169) and centrifuge at 13,000 rpm for 5 minutes and take 5 μL from this solution and dilute in 495 μL of LCMS grade methanol (Fischer scientific, CAS #67-56-1) in an 2 mL glass auto sampler vial (Microsolv, Cat #95025-WCV) 9. The samples are analyzed by LCMS-8040. (Shimadzu)
(§10) Calculation: From the peak area, calculate the following
(§11) The compounds are tested for the metabolic stability in the Human and Mouse Liver microsomes at 10 μM concentration.

[2] = Human liver microsome stability assay; assay type: in vitro ADME; conditions: 10 μM compound; for % left (Human LM), (1 h): cells marked (1 h); for half-life at 10 μM: human, liver microsomes, read-out: Half-life (min) (HumanLM)
Method: as §1, §2, §3, §4, §5, §6, §7, §8, §9, §10, §11

[3] = tested on: mice subjected to chronic restraint stress (CRS); assay: Y-maze alternation task, chronic restraint stress (CRS) mice; assay type: in vivo, mouse
Method: C57/B16 mice, males and females were ordered from Jackson Laboratories at 8 weeks old and were kept in normal housing conditions (12 h light ON cycle starting at 7 am/water and food ad libitum) for one week. During this week, animals were single housed and handled to reduce the anxiety-like response toward the experimenter. To induce a working memory deficit, mice were subjected to a chronic restraint stress protocol (CRS). They were placed in a 50 ml Falcon® tube, twice a day, for 1 hour during their diurnal cycle. The time of occurrence of the stress was randomized every day to avoid predictability. CRS was not applied on testing days. Y-maze test occurred 15 hours minimum after the last stressor.
Mice were first habituated to the Y-maze apparatus and distal cues during 2 consecutive days over a 10 min free exploration session (one session per day). The next day, animals performed a training session consisting in seven successive trials separated by a 30 s inter-trial interval (ITI); during this training session, mice were familiarized with the experimental procedure (opening and closing of the doors and confinement into the goal arms). For each trial, mice remained in the start-box for a 30 s ITI. Then, the door was opened and the mouse was allowed to enter freely one of the two goal arms; the chosen arm was closed and the choice was recorded. After a 30 s confinement period into the chosen arm, the mouse was removed and brought back to the start-box for a second trial identical to the first one and this procedure was repeated over the series of trials.
The same general procedure used in the training session was implemented 24 h later, except that the ITI was lengthened to 90 s. For this experiment, animals were acutely injected i.p. with vehicle or αPAM, 30 minutes before the beginning of the test. To dissociate memory deficits from an eventual progressive loss of motivation to alternate over the series, an 8th trial was added to the series which was separated from the 7th trial by a shorter ITI (5 s). All animals failing to alternate at the 8th trial were excluded. The mean alternation rate was calculated and was expressed in percentage (number of alternation done by the animal/total number of alternation possible×100)±SEM. The percentage of alternation during the entire task is considered as an index of working memory performance (50% of being a random alternation rate). Factorial ANOVA was applied to the data to reveal differences between groups. If the ANOVA was significant for group effect (p<0.05), Scheffe post-hoc analysis were conducted to identify which groups are different from each other.
All drugs were diluted in a vehicle solution containing 85% H2O, 14% propylene glycol (Sigma Aldrich) and 1% Tween 80 (Sigma Aldrich). Working solutions were prepared at a concentration of 10 mg/mL and administered i.p. adjusted to the body weight of each animal. Doses used were either 1, 5, 10 or 20 mg/kg. For all Y maze experiments, animals were acutely injected i.p. with vehicle or αPAM, 30 minutes before the beginning of the test.

HEK293 = assay: Cytotoxicity assay (CellTiter-Glo), HEK293; assay type: cell-based, human; conditions: 48 hours incubation
Method: Human liver hepatocellular carcinoma (HEPG2) and human embryonic kidney 293 (HEK293) cell lines were purchased (ATCC) and cultured in 75 cm2 flasks (CellStar). Cells were grown in DMEM/High Glucose (Hyclone, #SH3024301) media to which non-essential amino acids (Hyclone, #SH30238.01), 10 mM HEPES (Hyclone, #SH302237.01), 5×106 units of penicillin and streptomycin (Hyclone, #SV30010), and 10% of heat inactivated fetal bovine serum (Gibco, #10082147) were added. Cells were harvested using 0.05% Trypsin (Hyclone, #SH3023601), washed with PBS, and dispensed into sterile white, optical bottom 384-well plates (NUNC, #142762). After three hours, small molecule solutions were transferred with a Tecan Freedom EVO liquid handling system equipped with a 100 nL pin tool (V&P Scientific). The controls (E)-10-(bromotriphenylphosphoranyl)decyl 4-(4-(tert-butyl)phenyl)-4-oxobut-2-enoate (400 μM in DMSO, positive control) and DMSO (negative control). The cells were incubated for 48 hours followed by the addition of CellTiter-Glo™, a luminescence-based cell viability assay (Promega, Madison, Wis.). All luminescence readings were performed on a Tecan Infinite M1000 plate reader. The assay was carried out in quadruplet with three independent runs. The data was normalized to the controls and analyzed by nonlinear regression (GraphPad Prism).

[4] = tested on: Female Swiss Webster mice; assay: Rotarod sensorimotor / locomotor coordination; assay type: in vivo, mouse; conditions: 40 mg/kg oral gavage; 15 rpm, 3 min; 10, 30, 60 min after dosing
[5] = 5 mg/kg i.p. 30 min before testing
[6] = 10 mg/kg i.p. 30 min before testing
[7] = 1 mg/kg i.p. 30 min before testing

Row | SMILES | % left after 2 hr. (MouseLM) [1] | half-life at 10 μM [1] [min] | % left (Human LM), (1 h) [2] [%] | half-life at 10 μM [2] [min] | Alternation rate (%) ([3]; Dose 5 mg/kg) | HEK293 LD50 (HEK293) [µM] | Half-life (min) (MouseLM) [1] | % left (MouseLM), (1 h) [1] | Half-life (min) (HumanLM) [2] | effect on CRS-induced working memory deficit (percent alternation rate, Y-maze) [3, 5] | effect on CRS-induced working memory deficit (percent alternation rate, Y-maze) [3, 6] | effect on CRS-induced working memory deficit (percent alternation rate, Y-maze) ([3]; 20 mg/kg i.p. 30 min before testing) | sensorimotor impairment on rotarod (time of fall) [4] | % left after 2 hr. (Human LM) ([2]; 2 hr) [%] | effect on CRS-induced working memory deficit (percent alternation rate, Y-maze) [3, 7] | Alternation rate (%) ([3]; Dose 10 mg/kg) | Alternation rate (%) ([3]; Dose 1-5-10 mg/kg)
1 | C#Cc1ccc2c(c1)C(c1ccccc1F)=N[C@H](C)c1c(C(=O)NC)ncn1-2 [MP-III-022] | 76.6% and 76.6 ± 0.2% | 164 ± 10 | 69.4 ± 0.4 | 141 ± 18 | 45.5 | >100 | – | – | – | – | – | – | – | – | – | – | –
2 | C#Cc1ccc2c(c1)C(c1ccccc1F)=N[C@H](C)c1c(C(=O)N(C)C)ncn1-2 [GL-II-73, (R)-8-ethynyl-6-(2-fluorophenyl)-N,N,4-trimethyl-4H-benzo[f]imidazo[1,5-a][1,4]diazepine-3-carboxam] | – | – | – | – | – | >200 | 309 ± 36 | 81.6% and 86.6 ± 0.2% | 755 ± 243 | pro-cognitive effect | pro-cognitive effect | pro-cognitive effect | no sensorimotor impairment | – | – | – | –
3 | C#Cc1ccc2c(c1)C(c1ccccc1F)=N[C@@H](C)c1c(C(=O)N(C)C)ncn1-2 [GL-I-54, (S)-8-ethynyl-6-(2-fluorophenyl)-N,N,4-trimethyl-4H-benzo[f]imidazo[1,5-a][1,4]diazepine-3-carboxamide] | 15.0% and 15.0 ± 3.0% | 53 ± 10 | – | 100 ± 4.5 | – | >400 | – | – | – | – | significant reversal of CRS-induced impairment in working memory; also recorded: significant pro-cognitive effect | – | most severe motor impairment | 36.4 ± 2.0 | decreased performance | – | –
4 | C#Cc1ccc2c(c1)C(c1ccccc1F)=N[C@H](C)c1c(C(=O)N3CCCC3)ncn1-2 [GL-II-76, (R)-(8-ethynyl-6-(2-fluorophenyl)-4-methyl-4H-benzo[f]imidazo[1,5-a][1,4]diazepin-3-yl)(pyrrolidin-1-yl)methanone] | – | 23 ± 1 | 75 ± 0.1 | 154 ± 5 | – | >100 | – | 18.6 ± 0.3% | – | – | – | – | no sensorimotor impairment | – | – | 47.2 | –
5 | C#Cc1ccc2c(c1)C(c1ccccc1F)=N[C@H](C)c1c(C(=O)NC3CC3)ncn1-2 [GL-II-75, (R)—N-cyclopropyl-8-ethynyl-6-(2-fluorophenyl)-4-methyl-4H-benzo[f]imidazo[1,5-a][1,4]diazepine-3-carboxamide] | – | 239 ± 22 | – | 712 ± 165 | – | – | – | 83.5 ± 0.2% | – | significant reversal of CRS-induced impairment in working memory; also recorded: significant pro-cognitive effect | significant reversal of CRS-induced impairment in working memory; also recorded: significant pro-cognitive effect | – | – | – | significant reversal of CRS-induced impairment in working memory; also recorded: significant pro-cognitive effect | – | –
6 | C#Cc1ccc2c(c1)C(c1ccccc1F)=N[C@H](C)c1c(C(=O)NCC)ncn1-2 [GL-II-74, (R)—N-ethyl-8-ethynyl-6-(2-fluorophenyl)-4-methyl-4H-benzo[f]imidazo[1,5-a][1,4]diazepine-3-carboxamide] | – | 69 ± 3 | – | 751 ± 214 | – | – | – | 56.5 ± 0.3% | – | – | – | – | no sensorimotor impairment | – | – | – | <58.3
